The numbers were not newly measured in patent publication US6673373B2, “Antifungal formulation and the methods for manufacturing and using the same” (Carlsbad Technology Inc., priority 2001, dated 2004), which cites them from elsewhere.

Where only a bound is given, the exact number is not on record here.

Assay in data set [1]: not given
This is another data set of the same source.

Assay in data set [2]: not given
This is another data set of the same source.

For `CCC(C)n1ncn(-c2ccc(N3CCN(c4ccc(OC[C@H]5CO[C@](Cn6cncn6)(c6ccc(Cl)cc6Cl)O5)cc4)CC3)cc2)c1=O` (mixture of isomers) [itraconazole, (±)-cis-4-[4-[4-[4-[[2-(2,4-dichlorophenyl)-2-(1H-1,2,4-triazol-1-ylmethyl)-1,3-dioxolan-4-yl]methoxy]phenyl]-1-piperazinyl]phenyl]-2,4-dihydro-2-(1-methylpropyl)-3H-1,2,4-triazol-3-one], the solubility in water entry is given as “less than 1 μg/ml”. Moreover, the “binding rate with plasma proteins” value in the data set with plasma proteins is listed as 99.8%. Further, in data set [1] (after taken by the patients), the “time to reach peak concentration in plasma” value is 3 to 4 h. Moreover, in data set [1] (in vivo), the “concentration in blood as % of that in plasma” value is given as “about 60%”, the “itraconazole in its original form excreted in feces” value was 3-18%, the “itraconazole in its original form secreted in urine” value is recorded as at most 0.03% and the plasma half life was 24 to 36 h. For the same compound, the “itraconazole metabolites secreted in urine” value in data set [1] (within a week after the uptake of the drug) is given as “About 35%”.

As for hydroxy-itraconazole, in data set [2], the “antifungal activity in vitro” value was “demonstrated in vitro to have antifungal activity”.
